Structures are written as SMILES.

Assay [1] deals with RAW264.7 cells. Description: PGE2 produced by LPS stimulation in RAW264.7 cells. Format: cell-based, mouse. The conditions noted are these: 0.1 microgram/mL, single substance, P<0.01 vs LPS group. The procedure: Suspend mouse-derived macrophage-like cells RAW264.7 in the culture medium “Minimum Essential Medium (MEM)” containing a 0.1 mM nonessential amino acid mixture, 10% fetal calf serum (FCS), penicillin (100 units/mL), and streptomycin (100 microgram/mL) in concentration of 1×10^6 cells/mL. Then, the cells were seeded into 48-well plate (200 microliter/well).
In 48 to 72 hours after the cultivation, vacuum the culture medium. Then clean the culture medium thrice with the serum-free culture medium (which contains no FCS). Then, add the serum-free culture medium (170 microliter) to each well.
After that, add the LPS solution (10 microlitre) which was prepared to 200 microgram/mL in the serum-free culture medium, to each well (final concentration 10 microgram/mL). Then, add the serum-free culture medium (10 microliter) to the well of the control group. Add 20 microliter each of the red ginger extract sample solution which was prepared to be the concentrations of […] in the serum-free culture medium, and add indomethacin in concentration of 8.9 microgram/mL (equivalent to 25 microM) to three wells, each. (The final concentrations of the red ginger extract are to be 0.1, 0.3, 1, 3, and 10 microgram/mL, and the final concentration of indomethacin is to be 0.89microgram/mL which is equivalent to 2.5 microM). […]

Assay [2] deals with RAW264.7 cells. Description: NO production inhibition test (LPS, Griess Method). Format: cell-based, mouse. The procedure:
A 200 microliter each of the continuously-cultivated RAW264.7 cells (10^6 cells/mL) should be seeded into 48-well plate. After 24 hours, replace the culture medium with a serum-free culture medium. Then, add the LPS (final concentration: 10 microgram/mL) and samples (Examples 1 & 2), and then cultivate for 24 hours. Collect the supernatant (100 microliter) and determine the amount of NO by the Griess Method.

In another assay the test system is NO production. The conditions noted are these: concentration of 21.5 to 215 microgram/mL (FIG. 9); cited from earlier work.

For `CCCCC[C@H](O)CC(=O)CCc1ccc(O)c(OC)c1` [Example 6-gingerol, 6-gingerol], the “Inhibition ratio of PGE2 production” value in the assay with RAW264.7 cells [1] came to 37.8%. Also, the NO in supernatant in the assay with RAW264.7 cells [2] (1 μg/mL, LPS 10 microgram/mL, 24 hours, average ± SD) stood at 3.50 ± 0.26 µM; in the assay on RAW264.7 cells [2] (3 μg/mL) it was 3.66 ± 0.33 µM; in the assay with RAW264.7 cells [2] (10 μg/mL) it was 3.27 ± 0.26 µM; in the assay with RAW264.7 cells [2] (30 μg/mL) it was 3.11 ± 0.22 µM; with RAW264.7 cells [2] (100 μg/mL), 2.81 ± 0.47 µM. The figures for the “Inhibition ratio (NO production)” value with RAW264.7 cells [2] (30 μg/mL) and in the assay with RAW264.7 cells [2] (100 μg/mL) were “(4.3) %” and “(17.6) %”, respectively.

Consider `Cl.N[C@H]1C(O)O[C@H](CO)[C@@H](O)[C@@H]1O` (stereo partly drawn) [glucosamine hydrochloride], for which the “Inhibitory effect on NO production” value with NO production is listed as “has the inhibitory effect on NO production”.
